Assay results reported in patent US20200155638A1, “Enhancing Oxytocin Receptor Expression Using an Oxytocin Receptor Agonist and an Alk5 Antagonist” (The Regents of the University of California, priority 2017, published 2020).
“Also recorded” adds a separate entry of the source.

Tests used:
oxytocin receptor (OXTR) = assay: OXTR expression in skeletal muscle by real-time qRT PCR; type: in vivo, C57.B6 mice; conditions: old mice, s.c. daily 7 days, compared to control HBSS
Protocol: Old C57.B6 male mice (23-24 mo) per were administered by subcutaneous injections with oxytocin (OXT), Alk5i, a mixture of OXT and Alk5i (OXT+Alk5i) or control in vivo for 7 days, daily. The expression levels of oxytocin receptor (OXTR) were assayed by real-time qRT PCR in skeletal muscle of these mice.
OT and/or A5i or control vehicle (HBSS) was injected subcutaneously to old male C57.B6 mice (23-24 month), daily for 7 days before sacrifice. 3 month C57.B6 male mice identically injected with HBSS were used as young controls
qPCR analysis: Tissue lysates from frozen muscle, liver, and brain embedded in OCT were prepared. 40 slices of 10 μm thick slices were collected and homogenized using QIAShredder (from QIAGEN). Total RNA was extracted with RNeasy Mini Kit (from QIAGEN) according to manufacturer's instructions. Reverse transcription was performed with Superscript III First-Stand Synthesis System (from Invitrogen) according to manufacturer's instructions. For real-time PCR amplification and quantification of gene of interest, 1 ug of total cDNA was used for the initial amplification using specific primers to each gene of interest; amplification was performed with a denaturation step at 95 C for 10 minutes, followed by 40 cycles of denaturation at 95 C for 15 seconds and primer extension at 60 C for 30 s. Real-time PCR was performed using iQ™ SYBR Green Supermix (from Bio-Rad) under CFX Connect Real-Time System (Bio-Rad). Reactions were run in triplicates. Housekeeping gene actin was used as an internal control to normalize the variability in expression levels, and results were analyzed using the 2-ΔΔCT method described (50).

[1] = test system: neural stem cells (Sox-2+) in the subgranular zone of the Dentate Gyrus; assay: Hippocampal neurogenesis in old mice (proliferating Sox-2+ neural stem cells in SGZ); type: in vivo; conditions: old mice with CTX muscle injury, 7 days treatment, vs HBSS control
Protocol: In addition to the cohort that underwent muscle injury, we also performed a study with old mice that were not injured. Young mice administered with control HBSS served as control. […] Hippocampal neurogenesis was assayed in the same mice that were studied for muscle repair above and additionally for mice that were not injured by cardiotoxin. The numbers of proliferating neural stem cells (Sox2+Ki67+) cells per DG of SGZ of hippocampus were quantified in serial brain cryosections. […] NS=non-statistically significant. […] Scale bar=100 microns. […] Data quantification: Muscle regeneration indices were calculated by counting percent de-novo myofibers with central nuclei to total nuclei in multiple images of 10-micron muscle sections for independently treated animals. Muscle fibrosis was quantified by measuring fibrotic areas on Image J. These fibrotic areas were normalized to the area of the image taken at 20× (˜14000 micron^2). Hippocampal neurogenesis (Sox2+/Ki67+, Sox2/BrdU+), p16+SGZ cell numbers and CD45+ cell numbers were quantified by counting the number of respective cells (from multiple 25-35-micron IF brain sections) and for neurogenesis and p16+ cells, extrapolating these numbers to the total thickness of the dentate gyrus. […]

old mice = assay: Four-limb hanging test; type: in vivo; conditions: old mice without muscle injury; for strength (average hang time): 7-day treatment; for learning: percent improvement from first to second hang time: before and after 7-day treatment
Protocol: To assay functional performance, Alk5i alone (low dose), OT alone, Alk5i+OT and control HBSS were dosed to old mice without muscle injury, using young mice injected with HBSS as an additional control. The four-limb hanging test was given to all mice before and after the 7-day treatment. In order to better focus the test on the learning and memory aspects (rather than strength) we examined the percent improvement of each individual animal from the first to the second test session among all studied cohorts.
A four-limb hanging test was conducted with mice before and after treatment by injection of oxytocin (OT), Alk5 inhibitor (A5i) or both, or control HBSS (young and old). The maximal hang time from two trials was considered and the percent change for each animal before and after treatment is shown. A difference is observed between young and all old cohorts (p<0.04) except for the old+Alk5i+OT where there is no statistically significant difference with the young (p=0.5) (test, 1 tail, heteroscedastic).
Four limb hanging test: Muscle strength and endurance were determined by timing how long mice can hang upside down from a wire screen, as published (27). Briefly, each mouse was placed on a 1 cm. mesh, 1 mm wire screen, 30 cm over soft bedding, inverted and timed until the mouse fell. Each animal was given two to three trials with at least a 5-minute rest between trials. Hanging index is expressed as the maximum hang time times the weight of the mouse, with longer times or greater weight for a given time considered better performance.

p16 = p16 protein in primary myotubes (Western Blotting); type: cell-based; conditions: 24 hours treatment
muscle regeneration = conditions: short term subcutaneous injection; cited from earlier work
p21 [2] = conditions: pERK-dependent manner; cited from earlier work
p21 [3] = conditions: high dose, old mice; cited from earlier work

| Compound | OXTR expression levels in skeletal muscle (oxytocin receptor (OXTR); listed as OXT) | hippocampal neurogenesis (Sox2+Ki67+ cells) [1] | strength (average hang time) (old mice) | learning: percent improvement from first to second hang time (old mice) | p16 protein levels in primary myotubes (p16) | muscle regeneration in old mice (muscle regeneration) | CDKI p21 (p21 [2]) | OXTR expression levels in skeletal muscle (oxytocin receptor (OXTR)) | OXTR levels diminished by (oxytocin receptor (OXTR)) | p21 levels in brain (p21 [3]) |
| --- | --- | --- | --- | --- | --- | --- | --- | --- | --- | --- |
| CC[C@H](C)[C@@H]1NC(=O)[C@H](Cc2ccc(O)cc2)NC(=O)[C@@H](N)CSSC[C@@H](C(=O)N2CCC[C@H]2C(=O)N[C@@H](CC(C)C)C(=O)NCC(N)=O)NC(=O)[C@H](CC(N)=O)NC(=O)[C@H](CCC(N)=O)NC1=O [OT, Oxytocin] | had no effect; also recorded: did not have an effect on OXTR | failed to enhance the neurogenesis of the old animals | young animals outperformed all old cohorts | did not show improvement | not either molecule alone | able to restore muscle regeneration in old mice | down-modulate CDKI p21 |  |  |  |
| 2-(3-(6-Methylpyridin-2-yl)-1H-pyrazol-4-yl)-1,5-naphthyridine [Alk5i] |  | failed to enhance the neurogenesis of the old animals | young animals outperformed all old cohorts | did not show improvement | not either molecule alone |  |  | reduced the levels of the oxytocin receptor (OTR) | 2 fold | attenuates p21 levels in brain of old mice |
